Source: ChEMBL document CHEMBL1201862, “PubChem BioAssay data set” (2004)
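Grown in 96-well plates, cells were treated for 48 hours with each compound at five concentrations. Insufficient inhibition: endpoint recorded as highest concentration tested. GI50 = concentration required for 50% inhibition of growth.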 Active and inactive are the calls of the source. No stated cut-off is given here; in the data, active = GI50 up to about 1.1 µM and inactive = higher.

How the values were obtained:
Experiment in all cases: NCI anticancer screen, dose series, 48 h
[1] = tested on: KM12
[2] = tested on: OVCAR-8
[3] = tested on: OVCAR-5
[4] = tested on: MOLT-4
[5] = tested on: RXF 393
[6] = tested on: U-251
[7] = tested on: SR
[8] = tested on: SK-MEL-5
[9] = tested on: UO-31
[10] = tested on: OVCAR-3
[11] = tested on: LOX IMVI
[12] = tested on: T47D
[13] = tested on: HOP-62
[14] = tested on: SW-620
[15] = tested on: MDA-MB-435
[16] = tested on: NCI-H460
[17] = tested on: A498
[18] = tested on: MDA-N
[19] = tested on: NCI-H522
[20] = tested on: IGROV-1
[21] = tested on: SF-268
[22] = tested on: Hs-578T
[23] = tested on: SK-MEL-2
[24] = tested on: PC-3
[25] = tested on: SK-OV-3
[26] = tested on: RPMI-8226
[27] = tested on: A549
[28] = tested on: HL-60
[29] = tested on: CCRF-CEM
[30] = tested on: DU-145
[31] = tested on: SN12C
[32] = tested on: HOP-92
[33] = tested on: HCC 2998
[34] = tested on: Malme-3M
[35] = tested on: 786-0
[36] = tested on: HT-29
[37] = tested on: COLO 205
[38] = tested on: SNB-75
[39] = tested on: NCI-H23
[40] = tested on: CAKI-1
[41] = tested on: SF-539
[42] = tested on: MCF7
[43] = tested on: M14
[44] = tested on: BT-549
[45] = tested on: HCT-15
[46] = tested on: NCI-H226
[47] = tested on: OVCAR-4
[48] = tested on: UACC-62
[49] = tested on: TK-10
[50] = tested on: NCI/ADR-RES
[51] = tested on: MDA-MB-231
[52] = tested on: SNB-19
[53] = tested on: SK-MEL-28
[54] = tested on: SF-295
[55] = tested on: HCT-116
[56] = tested on: ACHN
[57] = tested on: K562

With `CN[C@@H](Cc1cccc2ccccc12)C(=O)N[C@@H](CC(C)C)B(O)O` as the compound, how does the GI50 [1] read?
The GI50 was < 10 nM (active).

What about the GI50 [2] of the same compound?
The GI50 was < 14 nM (active).

And the GI50 [3]?
The GI50 was < 10 nM (active).

And the GI50 [4]?
Its GI50 is < 10 nM (active).

And the GI50 [5]?
The GI50 was < 10 nM (active).

What about the GI50 [6] of the same compound?
The GI50 was < 12.6 nM (active).

And the GI50 [7]?
Its GI50 is < 10 nM (active).

And the GI50 [8]?
The GI50 was < 10 nM (active).

What about the GI50 [9] of the same compound?
Its GI50 is < 10 nM (active).

And the GI50 [10]?
The GI50 was < 10 nM (active).

What about the GI50 [11] of the same compound?
Its GI50 is < 10 nM (active).

What about the GI50 [12] of the same compound?
The GI50 was < 10 nM (active).

And the GI50 [13]?
The GI50 was < 11 nM (active).

What about the GI50 [14] of the same compound?
Its GI50 is < 10 nM (active).

What about the GI50 [15] of the same compound?
Its GI50 is < 10 nM (active).

What about the GI50 [16] of the same compound?
Its GI50 is < 11.3 nM (active).

And the GI50 [17]?
Its GI50 is < 10 nM (active).

What about the GI50 [18] of the same compound?
Its GI50 is < 10 nM (active).

And the GI50 [19]?
The GI50 was < 10 nM (active).

What about the GI50 [20] of the same compound?
Its GI50 is < 10 nM (active).

What about the GI50 [21] of the same compound?
The GI50 was < 10 nM (active).

And the GI50 [22]?
Its GI50 is 14.3 nM (active).

And the GI50 [23]?
The GI50 was < 10 nM (active).

What about the GI50 [24] of the same compound?
Its GI50 is < 11.9 nM (active).

And the GI50 [25]?
The GI50 was 166 nM (active).

And the GI50 [26]?
Its GI50 is < 10 nM (active).

And the GI50 [27]?
The GI50 was < 10 nM (active).

And the GI50 [28]?
Its GI50 is < 10 nM (active).

And the GI50 [29]?
The GI50 was 5.16 nM (active).

What about the GI50 [30] of the same compound?
The GI50 was < 10.9 nM (active).

And the GI50 [31]?
The GI50 was < 10 nM (active).

What about the GI50 [32] of the same compound?
Its GI50 is < 10 nM (active).

And the GI50 [33]?
Its GI50 is < 10 nM (active).

What about the GI50 [34] of the same compound?
The GI50 was < 10 nM (active).

And the GI50 [35]?
The GI50 was < 10 nM (active).

And the GI50 [36]?
The GI50 was < 10 nM (active).

What about the GI50 [37] of the same compound?
The GI50 was < 10 nM (active).

And the GI50 [38]?
Its GI50 is < 10 nM (active).

And the GI50 [39]?
Its GI50 is < 10 nM (active).

And the GI50 [40]?
Its GI50 is < 10 nM (active).

What about the GI50 [41] of the same compound?
Its GI50 is < 10 nM (active).

And the GI50 [42]?
Its GI50 is < 10 nM (active).

And the GI50 [43]?
The GI50 was < 10 nM (active).

And the GI50 [44]?
The GI50 was < 10 nM (active).

And the GI50 [45]?
The GI50 was < 10 nM.

What about the GI50 [46] of the same compound?
Its GI50 is 2.11 nM (active).

And the GI50 [47]?
The GI50 was < 10 nM (active).

What about the GI50 [48] of the same compound?
The GI50 was < 10 nM (active).

What about the GI50 [49] of the same compound?
The GI50 was < 10 nM (active).

And the GI50 [50]?
Its GI50 is < 22.4 nM (active).

What about the GI50 [51] of the same compound?
The GI50 was < 10 nM (active).

And the GI50 [52]?
Its GI50 is < 10 nM (active).

And the GI50 [53]?
The GI50 was < 10 nM (active).

And the GI50 [54]?
The GI50 was < 10 nM (active).

And the GI50 [55]?
The GI50 was < 10 nM (active).

And the GI50 [56]?
Its GI50 is < 10 nM (active).

What about the GI50 [57] of the same compound?
The GI50 was < 10 nM (active).
